Measured values taken from ChEMBL document CHEMBL3046108, “Comparison between antioxidant activity of 2,5-disubstituted 1,3,4-oxadiazoles containing heteroaromatic ring and aromatic ring at 2nd position” (Med Chem Res, 2011).
Converted amounts (≈) assume the structure as drawn.

What was measured:
Assay type in all cases: functional
[1] = tested on: Radical scavenging activity; experiment: Antioxidant activity of the compound assessed as DPPH radical scavenging activity at 6 ug/ml after 30 min
[2] = tested on: Radical scavenging activity; experiment: Antioxidant activity of the compound assessed as DPPH radical scavenging activity at 10 ug/ml after 30 min
[3] = tested on: Radical scavenging activity; experiment: Antioxidant activity of the compound assessed as DPPH radical scavenging activity at 2 ug/ml after 30 min
[4] = tested on: Radical scavenging activity; experiment: Antioxidant activity of the compound assessed as DPPH radical scavenging activity at 4 ug/ml after 30 min
[5] = tested on: Radical scavenging activity; experiment: Antioxidant activity of the compound assessed as DPPH radical scavenging activity at 8 ug/ml after 30 min
[6] = tested on: Radical scavenging activity; experiment: Antioxidant activity of the compound assessed as DPPH radical scavenging activity after 30 min

Question: How did the inhibition [1] turn out when `Nc1ccc(-c2nnc(-c3ccncc3)o2)cc1` was run?
Answer: 24.8%

Question: What about the inhibition [2] of the same compound?
Answer: 41.4%

Question: What about the inhibition [3] of the same compound?
Answer: 8.27%

Question: What about the inhibition [4] of the same compound?
Answer: 16.5%

Question: And the inhibition [5]?
Answer: 33.1%

Question: And the IC50 [6]?
Answer: 12.08 µg/mL (≈ 50.7 µM)

Question: For `O=C1O[C@H]([C@@H](O)CO)C(O)=C1O` [ASCORBIC ACID], which inhibition [1] is on record?
Answer: 53.2%

Question: What about the inhibition [2] of the same compound?
Answer: 87.3%

Question: What about the inhibition [3] of the same compound?
Answer: 18.2%

Question: And the inhibition [4]?
Answer: 35.3%

Question: And the inhibition [5]?
Answer: 69.3%

Question: And the IC50 [6]?
Answer: 5.68 µg/mL (≈ 32.3 µM)

Question: What does the source list for `Nc1ccccc1-c1nnc(-c2cccc([N+](=O)[O-])c2)o1`?
Answer: inhibition [1]: 19.7%; inhibition [2]: 30.8%; inhibition [3]: 5.51%; inhibition [4]: 14.2%; inhibition [5]: 25.2%; IC50 [6]: 16.04 µg/mL (≈ 56.8 µM)

Question: With `O=[N+]([O-])c1cccc(-c2nnc(-c3ccncc3)o2)c1` as the compound, how does the inhibition [1] read?
Answer: 42.5%

Question: What about the inhibition [2] of the same compound?
Answer: 71.2%

Question: What about the inhibition [3] of the same compound?
Answer: 15%

Question: What about the inhibition [4] of the same compound?
Answer: 28.7%

Question: And the inhibition [5]?
Answer: 57.7%

Question: What about the IC50 [6] of the same compound?
Answer: 6.99 µg/mL (≈ 26.1 µM)

Question: With `Cc1cccc(-c2nnc(-c3ccccc3N)o2)c1O` as the compound, how does the inhibition [1] read?
Answer: 48.8%

Question: And the inhibition [2]?
Answer: 81.9%

Question: And the inhibition [3]?
Answer: 15.9%

Question: And the inhibition [4]?
Answer: 31.9%

Question: What about the inhibition [5] of the same compound?
Answer: 64.9%

Question: What about the IC50 [6] of the same compound?
Answer: 6 µg/mL (≈ 22.4 µM)

Question: For `Nc1ccc(-c2nnc(-c3ccccc3N)o2)c(O)c1`, which inhibition [1] is on record?
Answer: 14.9%

Question: And the inhibition [2]?
Answer: 24.9%

Question: What about the inhibition [3] of the same compound?
Answer: 4.98%

Question: And the inhibition [4]?
Answer: 9.97%

Question: And the inhibition [5]?
Answer: 19.9%

Question: What about the IC50 [6] of the same compound?
Answer: 20.05 µg/mL (≈ 74.7 µM)

Question: Which inhibition [1] does the source give for `Nc1ccccc1-c1nnc(-c2ccccc2N)o1` here?
Answer: 38.6%

Question: And the inhibition [2]?
Answer: 64%

Question: What about the inhibition [3] of the same compound?
Answer: 12.1%

Question: And the inhibition [4]?
Answer: 25.8%

Question: And the inhibition [5]?
Answer: 52.1%

Question: And the IC50 [6]?
Answer: 7.76 µg/mL (≈ 30.8 µM)

Question: Which inhibition [1] does the source give for `O=[N+]([O-])c1ccc(-c2nnc(-c3ccncc3)o2)cc1` here?
Answer: 23.2%

Question: And the inhibition [2]?
Answer: 39.8%

Question: What about the inhibition [3] of the same compound?
Answer: 6.66%

Question: And the inhibition [4]?
Answer: 14.9%

Question: What about the inhibition [5] of the same compound?
Answer: 31.5%

Question: And the IC50 [6]?
Answer: 12.47 µg/mL (≈ 46.5 µM)

Question: With `Clc1ccc(-c2nnc(-c3ccncc3)o2)cc1` as the compound, how does the inhibition [1] read?
Answer: 39%

Question: And the inhibition [2]?
Answer: 53.8%

Question: And the inhibition [3]?
Answer: 12.8%

Question: What about the inhibition [4] of the same compound?
Answer: 24.4%

Question: What about the inhibition [5] of the same compound?
Answer: 43.6%

Question: And the IC50 [6]?
Answer: 9.01 µg/mL (≈ 35 µM)

Question: What does the source list for `Nc1ccccc1-c1nnc(-c2ccc(Cl)cc2)o1`?
Answer: inhibition [1]: 36.2%; inhibition [2]: 59.5%; inhibition [3]: 12.3%; inhibition [4]: 23.5%; inhibition [5]: 50%; IC50 [6]: 8.26 µg/mL (≈ 30.4 µM)
